# Reference: patent US8999981B2, “3-amido-pyrrolo[3,4-C]pyrazole-5(1H, 4H,6H) carbaldehyde derivatives” (Pfizer Inc., priority 2007, dated 2015)
# Target: Protein Kinase C beta 2 (PKCβII) (Homo sapiens (Human), UniProt P05771)
# Assay: PKCβII coupled PK/LDH spectrophotometric kinase assay
# Format: biochemical
# Conditions: apparent Ki, ATP-competitive model (Morrison equation); 0.1 mM ATP, 30° C.; read-out: PKCb Ki
# Procedure: This transfer is coupled to the oxidation of β-NADH through the activities of Pyruvate Kinase (PK) and Lactate Dehydrogenase (LDH). β-NADH conversion to NAD+ is monitored by the decrease in absorbance at 340 nm (e=6.22 cm^−1 mM^−1) using a Molecular Devices SPECTRA max PLUS spectrophotometer.
# A typical assay was carried out on a 96-well, clear microtiter plate in a Molecular Devices spectrophotometer for 20 minutes at 30° C. in 0.1 mL of assay buffer containing 50 mM HEPES, pH 7.4, 5 nM PKC, 23 units of pyruvate kinase, 33 units of lactate dehydrogenase, 0.15 mM peptide, 0.1 mM ATP, 1 mM DTT, 4 mM PEP, 8 mM MgCl2, 0.3 mM NADH, 60 mM CaCl2, 10 mg/mL PS, 50 ng/mL PMA, 7.5% DMSO and from about 10,000 nM to 0.169 nM compound inhibitor. Stock solutions of 3-sn-phosphatidyl-L-serine (PS) and phorbol-12-myristate-13-acetate (PMA) were sonicated for 30 seconds just prior to addition to assay buffer and assays were initiated by the addition of 100 μM ATP.
# Enzyme turnover values (kcat) were calculated according to […], where [E] is the total enzyme concentration. Enzyme inhibition constants (apparent K values) were determined by fitting initial velocities at variable inhibitor concentrations to a model for ATP competitive inhibition based on the Morrison equation). Morrison, J. F., Biochim. Biophys Acta 185: 269-286 (1969).
# Sequence of Protein Kinase C beta 2 (PKCβII) (P05771 other isoform, or with tags, fused parts or gaps): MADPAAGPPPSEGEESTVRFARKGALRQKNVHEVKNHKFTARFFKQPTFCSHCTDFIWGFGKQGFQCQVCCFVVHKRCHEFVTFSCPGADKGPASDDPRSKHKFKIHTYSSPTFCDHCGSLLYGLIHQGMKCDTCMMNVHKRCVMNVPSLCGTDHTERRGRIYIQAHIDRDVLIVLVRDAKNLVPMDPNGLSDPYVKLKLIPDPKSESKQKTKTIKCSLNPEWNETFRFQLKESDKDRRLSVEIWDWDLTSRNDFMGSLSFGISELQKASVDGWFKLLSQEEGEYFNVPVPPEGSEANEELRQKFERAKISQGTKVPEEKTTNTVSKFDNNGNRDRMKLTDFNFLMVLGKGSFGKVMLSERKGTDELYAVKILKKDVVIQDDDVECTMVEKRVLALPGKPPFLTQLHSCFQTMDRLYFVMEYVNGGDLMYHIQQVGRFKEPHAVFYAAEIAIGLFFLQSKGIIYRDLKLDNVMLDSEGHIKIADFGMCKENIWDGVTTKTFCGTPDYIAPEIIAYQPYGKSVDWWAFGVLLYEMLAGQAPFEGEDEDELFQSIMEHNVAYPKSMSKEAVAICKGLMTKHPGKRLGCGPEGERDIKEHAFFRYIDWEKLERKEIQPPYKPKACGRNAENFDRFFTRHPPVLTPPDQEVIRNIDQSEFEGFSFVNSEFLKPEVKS
row,Structure (SMILES),Ki [nM]
1,CC[C@H](C)[C@H]1CN2CCC[C@@H]2CN1C(=O)N1Cc2c(NC(=O)c3ccccn3)n[nH]c2C1(C)C [Example A80],129
2,CC1(C)CN2CCC[C@H]2CN1C(=O)N1Cc2c(NC(=O)c3ccccn3)n[nH]c2C1(C)C [Example A81],125
3,CC1(C)CN2CCC[C@H]2CN1C(=O)N1Cc2c(NC(=O)c3ccccn3)n[nH]c2C1(C)C [Example A82],81.8
4,CCCN1C[C@H](C)N(C(=O)N2Cc3c(NC(=O)c4ccccn4)n[nH]c3C2(C)C)C[C@H]1CCO [Example A83],9.53
5,CC[C@H](C)[C@H]1CN2C[C@H](O)C[C@H]2CN1C(=O)N1Cc2c(NC(=O)c3ccccn3)n[nH]c2C1(C)C [Example A84],139
6,CC[C@H](C)[C@H]1CN2C[C@H](O)C[C@H]2CN1C(=O)N1Cc2c(NC(=O)c3ccccn3)n[nH]c2C1(C)C [Example A85],15.2
7,CCC1(C)c2[nH]nc(NC(=O)c3ncc(F)cc3F)c2CN1C(=O)C1C[C@@H]2CCCN2C[C@@H]1C (some centres unmarked) [Example A86],74.1
8,C[C@H]1CN2CCC[C@H]2CN1C(=O)N1Cc2c(NC(=O)c3cc(N(C)C)ccn3)n[nH]c2C1(C)C [Example A87],32.3
9,C[C@H]1CN2CCC[C@H]2CN1C(=O)N1Cc2c(NC(=O)c3ccc4ccccc4n3)n[nH]c2C1(C)C [Example A88],17.8
10,C=CCN1C[C@H](C)N(C(=O)N2Cc3c(NC(=O)c4ccccn4)n[nH]c3C2(C)C)C[C@H]1C [Example A89],15.7
11,CC[C@H]1CN2CCC[C@@H]2CN1C(=O)N1Cc2c(CC(=O)c3ccccn3)n[nH]c2C1(C)C [Example A90],107
12,C[C@H]1CN2CCC[C@H]2CN1C(=O)N1Cc2c(NC(=O)c3ccc(Br)cn3)n[nH]c2C1(C)C [Example A91],20.3
13,C[C@H]1CN2CCC[C@H]2CN1C(=O)N1Cc2c(NC(=O)c3ccc(F)cn3)n[nH]c2C1(C)C [Example A92],20.3
14,COCCN1C[C@H](C)N(C(=O)N2Cc3c(NC(=O)c4ccccn4)n[nH]c3C2(C)C)C[C@H]1C [Example A93],63.6
15,CCN1C[C@H](C)N(C(=O)N2Cc3c(NC(=O)c4ccccn4)n[nH]c3C2(C)C)C[C@H]1C [Example A95],9.11
16,CC1CN(C(=O)N2Cc3c(NC(=O)c4ccccn4)n[nH]c3C2(C)C)C(C)CN1CCCO (centres unmarked) [Example A99],19.9
17,CC(C)[C@H]1CN2CCC[C@H]2CN1C(=O)N1Cc2c(NC(=O)c3ccccn3)n[nH]c2C1(C)C [Example A100],14.1
18,CC(C)[C@H]1CN2CCC[C@H]2CN1C(=O)N1Cc2c(NC(=O)c3ccc(F)cc3F)n[nH]c2C1(C)C [Example A101],148
19,CCCN1C[C@H](C)N(C(=O)N2Cc3c(NC(=O)c4ccc(F)cc4F)n[nH]c3C2(C)C)C[C@H]1CCO [Example A102],45.9
20,C[C@H]1CN2CCC[C@H]2CC1C(=O)N1Cc2c(NC(=O)c3csc(Br)n3)n[nH]c2C1(C)C (some centres unmarked) [Example A103],12.9

row,Structure (SMILES),Ki [nM]
1,C[C@H]1CN2C[C@H]3CC3[C@H]2CN1C(=O)N1Cc2c(NC(=O)c3ccccn3)n[nH]c2C1(C)C (some centres unmarked) [Example A104],83.7
2,C[C@H]1CN2C[C@@H](F)C[C@H]2CN1C(=O)N1Cc2c(NC(=O)c3ccccn3)n[nH]c2C1(C)C [Example A105],109
3,C[C@H]1CN2CCC[C@H]2CN1C(=O)N1Cc2c(NC(=O)C3CCCCO3)n[nH]c2C1(C)C (some centres unmarked) [Example A112],186
4,C[C@@H]1CN(C(=O)N2Cc3c(NC(=O)c4ccccn4)n[nH]c3C2(C)C)[C@@H](C)CN1C [Example A113],13.9
5,C[C@H]1CN(C)C(C)(C)CN1C(=O)N1Cc2c(NC(=O)c3ccc(F)cc3F)n[nH]c2C1(C)C [Example A114],87.1
6,CC[C@H]1CN(C(=O)N2Cc3c(NC(=O)c4ccccn4)n[nH]c3C2(C)C)[C@@H](C)CN1C [Example A125],93.9
7,CCN1C[C@H](C)N(C(=O)N2Cc3c(NC(=O)c4ccc(F)cn4)n[nH]c3C2(C)C)C[C@@H]1C [Example A126],22.2
8,CC1CN(C(=O)N2Cc3c(NC(=O)c4ccccn4)n[nH]c3C2(C)C)CCN1CC1CC1 (centres unmarked) [Example A127],134
9,CCN1CCN(C(=O)N2Cc3c(NC(=O)c4ccccn4)n[nH]c3C2(C)C)CC1C (centres unmarked) [Example A128],156
10,C[C@H]1CN(C)C(C)(C)CN1C(=O)N1Cc2c(NC(=O)c3ccccn3)n[nH]c2C1(C)C [Example A129],18.1
11,C[C@H]1CN2CCC[C@H]2CN1C(=O)N1Cc2c(NC(=O)c3ccc(C(F)(F)F)cn3)n[nH]c2C1(C)C [Example A130],31.5
12,CC[C@@H]1CN(C(=O)N2Cc3c(NC(=O)c4ccccn4)n[nH]c3C2(C)C)[C@@H](C)CN1C [Example A131],37.2
13,CCC1(CC)c2[nH]nc(NC(=O)c3ccccn3)c2CN1C(=O)N1C[C@@H]2CCCN2C[C@@H]1C [Example A132],61.9
14,C[C@H]1CN(C)C2(CCC2)CN1C(=O)N1Cc2c(NC(=O)c3ccccn3)n[nH]c2C1(C)C [Example A133],8.58
15,CC(C)[C@H]1CN(C)C(C)(C)CN1C(=O)N1Cc2c(NC(=O)c3ccccn3)n[nH]c2C1(C)C [Example A134],90.1
16,CC(C)[C@H]1CN(C)C(C)CN1C(=O)N1Cc2c(NC(=O)c3ccc(Cl)cn3)n[nH]c2C1(C)C (some centres unmarked) [Example A135],51.2
17,C[C@H]1CN2CCC[C@@]2(C)CN1C(=O)N1Cc2c(NC(=O)c3ccc(F)cn3)n[nH]c2C1(C)C [Example A138],29.3
18,CC[C@H]1CN2CCC[C@@]2(C)CN1C(=O)N1Cc2c(NC(=O)c3ccc(F)cn3)n[nH]c2C1(C)C [Example A139],75.2
19,C[C@@H]1CN(C(=O)N2Cc3c(NC(=O)c4cc(C5CC5)on4)n[nH]c3C2(C)C)[C@@H](C)CN1C [Example A140],26.8
20,C[C@@H]1CN(C(=O)N2Cc3c(NC(=O)c4ccccn4)n[nH]c3C2(C)C)[C@@H](C)CN1CCCC#N [Example A141],23.6

row,Structure (SMILES),Ki [nM]
1,C[C@@H]1CN(C(=O)N2Cc3c(NC(=O)c4ccccn4)n[nH]c3C2(C)C)[C@@H](C)CN1CC1CCOCC1 [Example A143],1.9
2,C[C@@H]1CN(C(=O)N2Cc3c(NC(=O)c4ccccn4)n[nH]c3C2(C)C)[C@@H](C)CN1CCCCC#N [Example A144],38.3
3,"C[C@@H]1CN(C(=O)N2Cc3c(NC(=O)c4ccccn4)n[nH]c3C2(C)C)[C@@H](C)CN1CCC1CCOCC1 [Example A145, N-(5-((2R,5S)-2,5-dimethyl-1-(2(tetradehydro-2H-pyran-4-yl)methyl)piperazine-4-carbonyl)-6,6-dimethyl-1,4,5,6-tetrahydropyrrolo[3,4-c]pyrazol-3-yl)picolinamide]",17.6
4,C[C@@H]1CN(C(=O)N2Cc3c(NC(=O)c4ccccn4)n[nH]c3C2(C)C)[C@@H](C)CN1C1CCOCC1 [Example A146],1.7
5,C[C@@H]1CN(C(=O)N2Cc3c(NC(=O)c4ccccn4)n[nH]c3C2(C)C)[C@@H](C)CN1CC1CCOC1 (some centres unmarked) [Example A147],< 10
6,C[C@@H]1CN(C(=O)N2Cc3c(NC(=O)c4ccccn4)n[nH]c3C2(C)C)[C@@H](C)CN1Cc1cocn1 [Example A148],48.3
7,C[C@@H]1CN(C(=O)N2Cc3c(NC(=O)c4ccc(F)cn4)n[nH]c3C2(C)C)[C@@H](C)CN1C1CCOCC1 [Example A149],< 10
8,C[C@H]1CN(C)[C@H](CCO)CN1C(=O)N1Cc2c(NC(=O)c3ccccn3)n[nH]c2C1(C)C [Example A150],42
9,C[C@H]1CN(C)[C@@H](CCO)CN1C(=O)N1Cc2c(NC(=O)c3ccccn3)n[nH]c2C1(C)C [Example A151],152
10,C[C@@H]1CN(C(=O)N2Cc3c(NC(=O)c4ccccn4)n[nH]c3C23CC3)[C@@H](C)CN1CC1CCOCC1 [Example A152],76.2
11,C[C@@H]1CN(C(=O)N2Cc3c(NC(=O)c4ccccn4)n[nH]c3C2(C)C)[C@@H](C)CN1CC1(C)COC1 [Example A153],37
12,C[C@H](CCO)N1C[C@H](C)N(C(=O)N2Cc3c(NC(=O)c4ccccn4)n[nH]c3C2(C)C)C[C@H]1C [Example A154],25.1
13,C[C@@H]1CN(C(=O)N2Cc3c(NC(=O)c4ccccn4)n[nH]c3C2(C)C)[C@@H](C)CN1[C@@H](C)CCO [Example A155],43.3
14,C[C@@H]1CN(C(=O)N2Cc3c(NC(=O)c4ccccn4)n[nH]c3C2(C)C)[C@@H](C)CN1CCOCCO [Example A156],108
15,Cc1nc(C)c(C(=O)Nc2n[nH]c3c2CN(C(=O)N2C[C@@H](C)N(CCCO)C[C@@H]2C)C3(C)C)o1 [Example A160],24.9
16,C[C@@H]1CN(C(=O)N2Cc3c(NC(=O)c4ccc(F)cn4)n[nH]c3C2(C)C)[C@@H](C)CN1CCO [Example A161],38.8
17,C[C@@H]1CN(C(=O)N2Cc3c(NC(=O)c4ccc(F)cn4)n[nH]c3C2(C)C)[C@@H](C)CN1CCCO [Example A162],21.7
18,COCCCN1C[C@H](C)N(C(=O)N2Cc3c(NC(=O)c4ccc(F)cn4)n[nH]c3C2(C)C)C[C@H]1C [Example A163],24.5
19,COCCN1C[C@H](C)N(C(=O)N2Cc3c(NC(=O)c4ccc(F)cn4)n[nH]c3C2(C)C)C[C@H]1C [Example A164],56.9
